Reference: patent US9820483B2, “Microbial composition” (Rohm and Haas Company, priority 2011, dated 2017)

Test system: Escherichia coli (E. coli—ATCC #10536)
Assay: Automated assessment of efficacy in model surfactant base (2.85% sodium cocoyl glycinate + 1.85% sodium lauroamphoacetate, pH 10), 15 seconds exposure, delta OD450/OD590 in D/E quench
Assay type: cell-based
Experimental: Solutions were prepared such that the concentrations of the surfactant components and test actives were 1.1× the final desired concentration in order to allow for dilution with the bacterial inoculum in the test. The solutions were manually adjusted to pH 10.0 by dropwise addition of sodium hydroxide solution, as measured with a pH meter at ambient temperature.
Tests were conducted using standard microtiter plate assays using an automated liquid handling system. 270 μl of the surfactant test solution was pipetted into each well of the microtitre plate and 30 μl of the bacterial suspension was then added. After exactly 15 seconds of bacterial exposure, a 30 μl volume of bacterial cells was withdrawn and transferred to 270 μl of D/E quench solution. After 5 minutes in the D/E quench, the optical density (OD) was measured for each plate in turn at two specific wavelengths (450 nm and 590 nm). These provide a dual check of antimicrobial activity, as the OD450 reading is specific for the yellow colour of D/E quench when bacterial growth is observed, whereas OD590 is specific for the initial purple colour of the D/E quench which is retained if no bacterial growth is observed. After the time zero OD measurements, plates were then incubated at 37° C. overnight (16 hours) before repeating the OD measurements. Delta OD values were calculated by subtracting […]. Bacterial growth is observed as an increase in OD450 and a decrease in ΔOD590. To identify antibacterially efficacious systems (those preventing appreciable bacterial growth after incubation), the following threshold changes in OD readings have been adopted: if (1). OD450 increases by less than 0.2 absorbance unit on incubation and (2). OD590 decreases by less than 0.35 unit on incubation. Conversely, where OD450 increases by more than 0.2 AU and OD590 decreases by more than 0.35 unit after incubation, corresponding to a colour shift from purple to yellow, the test system allows bacterial growth and is not deemed efficacious. Four replicate measurements in the same plate have been made for each test system. The number of replicate wells showing either bacterial growth or no growth is also readily assessed by eye by following the colour change.
Dose responses for individual components and binary mixtures of actives at a fixed concentration ratio were generated by sequential dilution of liquors with further surfactant solution to obtain a series of endpoints.
In some selected cases, the combinations were also tested at the weight ratio 1:1.
The method used was the same as in the above Table.

C=C(C)C1CCC(C)C(O)C1 (stereo not shown) [2-methyl-5-(prop-1-en-2-yl)cyclohexanol]
MBC (Escherichia coli, ATCC10536, 15 s, in 2.85% sodium cocoyl glycinate + 1.85% sodium lauroamphoacetate solution at pH 10, E. coli, read-out: MBC): 4000 µg/mL | No. of replicates showing growth (out of 4) (single active at 0.3% w/v): 4 | Δ OD 590 nm = OD590 (time = 16 hours) − OD590 (time zero), Mean (single active at 0.3% w/v): 0.66 | ΔOD 450 nm = OD450 (time = 16 hours) − OD450 (time zero), Mean (single active at 0.3% w/v): −0.44 | No. of replicates showing growth (out of 4) (single active at 0.5% w/v): 0 | Δ OD 590 nm = OD590 (time = 16 hours) − OD590 (time zero), Mean (single active at 0.5% w/v): 0.20 | ΔOD 450 nm = OD450 (time = 16 hours) − OD450 (time zero), Mean (single active at 0.5% w/v): 0.23 | No. of replicates showing growth (out of 4) (single active at […] w/v): 4 | Δ OD 590 nm = OD590 (time = 16 hours) − OD590 (time zero), Mean (single active at […] w/v): 0.63 | ΔOD 450 nm = OD450 (time = 16 hours) − OD450 (time zero), Mean (single active at […] w/v): −0.50
